From patent US11208386B2, “Inhibitors of protein arginine deiminases (PADs) and methods of preparation and use thereof” (University of Massachusetts, priority 2016, dated 2021)

Key:
Assay type in all cases: biochemical
PAD1 = target: T1, PAD1 (Homo sapiens, UniProt Q9ULC6); test: Inactivation kinetics, PAD1; settings: for kinact/KI: a: single kobs determined, b: from a linear fit; for Fold PAD1 Selectivity: kinact/KI relative to least inhibited isozyme (1.0)
T1 construct: made in house
T1 sequence (Q9ULC6 1-663): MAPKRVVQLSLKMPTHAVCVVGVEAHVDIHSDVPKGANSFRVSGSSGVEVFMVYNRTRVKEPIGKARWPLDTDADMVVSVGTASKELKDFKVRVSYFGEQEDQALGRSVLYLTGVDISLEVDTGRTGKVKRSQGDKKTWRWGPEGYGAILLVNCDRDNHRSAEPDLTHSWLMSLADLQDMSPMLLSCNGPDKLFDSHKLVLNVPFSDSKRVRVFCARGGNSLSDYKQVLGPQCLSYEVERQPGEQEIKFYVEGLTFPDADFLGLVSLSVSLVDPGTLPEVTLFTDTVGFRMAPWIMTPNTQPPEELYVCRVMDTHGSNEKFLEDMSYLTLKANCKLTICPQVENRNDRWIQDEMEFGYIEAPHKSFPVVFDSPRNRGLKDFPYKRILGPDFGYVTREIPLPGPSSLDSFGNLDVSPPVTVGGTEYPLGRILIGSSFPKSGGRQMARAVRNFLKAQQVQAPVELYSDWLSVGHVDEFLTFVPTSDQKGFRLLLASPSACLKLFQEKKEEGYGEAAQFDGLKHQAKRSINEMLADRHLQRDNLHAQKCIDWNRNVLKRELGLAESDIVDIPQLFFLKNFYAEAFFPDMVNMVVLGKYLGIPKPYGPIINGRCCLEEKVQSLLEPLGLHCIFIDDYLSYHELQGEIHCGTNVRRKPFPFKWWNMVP
Description: (§1) Inactivation kinetic parameters were determined by incubating PAD1, 2, or 4 (2.0 μM) or PAD3 (5.0 μM) in a pre-warmed (10 min; 37° C.) inactivation mixture (50 mM HEPES, 10 mM CaCl2, and 2 mM DTT, pH 7.6, with a final volume of 60 μL) containing various concentrations of inhibitor. Aliquots were removed at various time points and added to a pre-warmed (10 min, 37° C.) reaction mixture (50 mM HEPES, 50 mM NaCl, 10 mM CaC2, 2 mM DTT, and 10 mM BAEE or 10 mM BAA in the case of PAD3; pH 7.6). After 15 min, reactions were quenched in liquid nitrogen and citrulline production quantified using the COLDER assay. […] In Vitro Labeling of PADs with “Clickable” Probes BB-F-Yne (5u), BB-Cl-Yne (5v) and BIFYne (5w)

PAD2 = target: T2, PAD2 (Homo sapiens, UniProt Q9Y2J8); test: Inactivation kinetics, PAD2; settings: for kinact/KI: a: single kobs determined, b: from a linear fit, other footnotes: from kinact and KI; for Fold PAD2 Selectivity: kinact/KI relative to least inhibited isozyme (1.0)
T2 construct: made in house
Description: as §1

PAD3 = target: T3, PAD3 (Homo sapiens, UniProt Q9ULW8); test: Inactivation kinetics, PAD3; settings: for kinact/KI: a: single kobs determined; for Fold PAD3 Selectivity: kinact/KI relative to least inhibited isozyme (1.0)
T3 construct: made in house
T3 sequence (Q9ULW8 1-664): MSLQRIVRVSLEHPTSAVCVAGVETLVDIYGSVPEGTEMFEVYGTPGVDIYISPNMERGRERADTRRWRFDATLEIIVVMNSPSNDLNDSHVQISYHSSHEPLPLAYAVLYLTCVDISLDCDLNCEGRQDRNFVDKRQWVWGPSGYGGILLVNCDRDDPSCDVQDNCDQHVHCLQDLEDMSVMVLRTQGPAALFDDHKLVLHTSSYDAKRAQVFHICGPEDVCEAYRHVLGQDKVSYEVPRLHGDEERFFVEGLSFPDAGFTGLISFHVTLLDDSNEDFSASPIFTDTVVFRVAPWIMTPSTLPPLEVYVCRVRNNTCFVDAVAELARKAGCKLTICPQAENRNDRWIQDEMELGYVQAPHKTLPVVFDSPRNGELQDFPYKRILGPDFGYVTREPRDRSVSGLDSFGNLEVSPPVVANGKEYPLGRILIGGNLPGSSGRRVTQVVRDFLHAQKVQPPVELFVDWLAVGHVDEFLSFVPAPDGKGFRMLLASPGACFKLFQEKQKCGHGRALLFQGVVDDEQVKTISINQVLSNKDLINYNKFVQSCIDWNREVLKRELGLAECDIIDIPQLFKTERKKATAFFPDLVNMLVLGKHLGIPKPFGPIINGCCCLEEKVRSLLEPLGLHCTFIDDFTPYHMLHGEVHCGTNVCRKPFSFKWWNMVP
Description: as §1

PAD4 = target: T4, PAD4 (Homo sapiens, UniProt Q9UM07); test: Inactivation kinetics, PAD4; settings: for kinact/KI: a: single kobs determined, b: from a linear fit; for Fold PAD4 Selectivity: kinact/KI relative to least inhibited isozyme (1.0)
T4 construct: made in house
Description: as §1

T4 sequence (Q9UM07 whole entry): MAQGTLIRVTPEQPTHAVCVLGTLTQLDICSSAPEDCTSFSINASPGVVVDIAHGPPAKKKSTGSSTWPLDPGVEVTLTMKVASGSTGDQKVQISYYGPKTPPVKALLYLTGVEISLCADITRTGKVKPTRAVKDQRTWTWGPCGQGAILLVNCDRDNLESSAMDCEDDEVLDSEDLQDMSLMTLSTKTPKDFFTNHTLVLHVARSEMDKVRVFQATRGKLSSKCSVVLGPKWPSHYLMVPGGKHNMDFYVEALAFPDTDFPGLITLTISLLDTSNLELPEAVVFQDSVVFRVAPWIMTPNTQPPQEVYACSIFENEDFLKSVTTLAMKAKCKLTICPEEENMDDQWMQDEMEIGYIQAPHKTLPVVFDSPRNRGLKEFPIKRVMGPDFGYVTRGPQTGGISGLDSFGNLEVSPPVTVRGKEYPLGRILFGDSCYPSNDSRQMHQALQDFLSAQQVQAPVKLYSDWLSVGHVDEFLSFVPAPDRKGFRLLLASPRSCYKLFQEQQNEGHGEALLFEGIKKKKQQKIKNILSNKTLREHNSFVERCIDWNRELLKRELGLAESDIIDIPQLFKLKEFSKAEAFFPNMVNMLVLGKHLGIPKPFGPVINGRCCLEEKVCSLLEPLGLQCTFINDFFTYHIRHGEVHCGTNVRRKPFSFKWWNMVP
T2 sequence (Q9Y2J8 whole entry): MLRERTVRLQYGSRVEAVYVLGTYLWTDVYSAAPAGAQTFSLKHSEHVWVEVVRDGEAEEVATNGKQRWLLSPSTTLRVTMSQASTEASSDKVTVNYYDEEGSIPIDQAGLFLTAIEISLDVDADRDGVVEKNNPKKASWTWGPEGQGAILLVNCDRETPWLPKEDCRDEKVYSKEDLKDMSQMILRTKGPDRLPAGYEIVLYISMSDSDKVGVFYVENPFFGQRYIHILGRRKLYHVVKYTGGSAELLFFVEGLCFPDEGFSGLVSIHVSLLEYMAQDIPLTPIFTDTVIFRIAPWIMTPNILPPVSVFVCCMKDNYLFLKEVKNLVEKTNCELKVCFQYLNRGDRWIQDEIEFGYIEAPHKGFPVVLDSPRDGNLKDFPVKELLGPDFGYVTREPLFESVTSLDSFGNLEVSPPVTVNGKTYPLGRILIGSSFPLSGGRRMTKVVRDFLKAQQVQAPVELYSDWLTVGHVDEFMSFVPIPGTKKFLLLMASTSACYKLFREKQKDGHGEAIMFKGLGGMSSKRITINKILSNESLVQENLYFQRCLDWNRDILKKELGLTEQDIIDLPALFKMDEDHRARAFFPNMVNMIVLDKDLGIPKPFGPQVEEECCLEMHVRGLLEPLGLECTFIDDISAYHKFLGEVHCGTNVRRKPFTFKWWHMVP

`N=C(CCl)NCCC[C@H](NC(=O)c1ccccc1C(=O)O)c1nc2ccccc2[nH]1` [Compound 6b, N1-(2-Carboxyl)benzol-N5-(2-chloro-1-iminoethyl)-1-(1H-benzo[d]imidazol-2-yl)-L-omithine] was tested, and the kinact/KI (PAD1) was 475 M⁻¹ s⁻¹, the “Fold PAD1 Selectivity” value (PAD1) was 8.3 fold and the kinact/KI (PAD2) was 57.5 M⁻¹ s⁻¹. For the same molecule, the “Fold PAD2 Selectivity” value (PAD2) was 1.0 fold, the kinact/KI (PAD3) was 354 M⁻¹ s⁻¹ and the “Fold PAD3 Selectivity” value (PAD3) was 6.2 fold. The kinact/KI (PAD4) was 517 M⁻¹ s⁻¹ and the “Fold PAD4 Selectivity” value (PAD4) was 9.0 fold.
`CCOc1cccc2c1nc([C@H](CCCNC(=N)CF)NC(=O)c1cccc3c1C(=O)N(CC)C3)n2C` [Compound 8m, N1-(2-ethyl-3-oxoisoindoline)benzoyl-N5-(2-fluoro-1-iminoethyl)-1-(4-ethoxy-1-methyl-benzo[d]imidazol-2-yl)-L-ornithine] was tested, and the kinact/KI (PAD1) was 497 M⁻¹ s⁻¹, the “Fold PAD1 Selectivity” value (PAD1) was 8.9 fold and the kinact/KI (PAD2) was 1430 M⁻¹ s⁻¹. The “Fold PAD2 Selectivity” value (PAD2) was 26 fold, the kinact/KI (PAD3) was 57.8 M⁻¹ s⁻¹ and the “Fold PAD3 Selectivity” value (PAD3) was 1.0 fold. For the same molecule, the kinact/KI (PAD4) was 55.8 M⁻¹ s⁻¹ and the “Fold PAD4 Selectivity” value (PAD4) was 1.0 fold.
With `CC(C)n1c([C@H](CCCNC(=N)CF)NC(=O)c2ccccc2C(=O)O)nc2ccccc21` [Compound 6g, N1-(2-Carboxyl)benzoyl-N5-(2-fluoro-1-iminoethyl)-1-(1-isopropyl-benzo[d]imidazol-2-yl)-L-ornithine] the kinact/KI (PAD1) was 378 M⁻¹ s⁻¹, the “Fold PAD1 Selectivity” value (PAD1) was 49 fold and the kinact/KI (PAD2) was 412 M⁻¹ s⁻¹. For the same molecule, the “Fold PAD2 Selectivity” value (PAD2) was 54 fold, the kinact/KI (PAD3) was 33.5 M⁻¹ s⁻¹ and the “Fold PAD3 Selectivity” value (PAD3) was 4.4 fold. The kinact/KI (PAD4) was 7.67 M⁻¹ s⁻¹ and the “Fold PAD4 Selectivity” value (PAD4) was 1.0 fold.
In the case of `CCn1c([C@H](CCCNC(=N)CCl)NC(=O)c2cccc3c2C(=O)NC3)nc2c(OC)cccc21` [Compound 7r, N1-(3-oxoisoindoline)benzoyl-N5-(2-chloro-1-iminoethyl)-1-(4-methoxy-1-ethyl-benzo[d]imidazol-2-yl)-L-ornithine], the kinact/KI (PAD1) is reported as 1790 M⁻¹ s⁻¹, the “Fold PAD1 Selectivity” value (PAD1) is reported as 50 fold and the kinact/KI (PAD2) is reported as 657 M⁻¹ s⁻¹. For the same molecule, the “Fold PAD2 Selectivity” value (PAD2) was 19 fold, the kinact/KI (PAD3) was 103 M⁻¹ s⁻¹ and the “Fold PAD3 Selectivity” value (PAD3) was 2.9 fold. The kinact/KI (PAD4) was 35.5 M⁻¹ s⁻¹ and the “Fold PAD4 Selectivity” value (PAD4) was 1.0 fold.
`Cn1c([C@H](CCCNC(=N)CCl)NC(=O)c2ccccc2C(=O)O)nc2ccccc21` [Compound 6d, N1-(2-Carboxyl)benzoyl-N5-(2-chloro-1-iminoethyl)-1-(1-methyl-benzo[d]imidazol-2-yl)-L-ornithine] was tested, and the kinact/KI (PAD1) was 537 M⁻¹ s⁻¹, the “Fold PAD1 Selectivity” value (PAD1) was 4.3 fold and the kinact/KI (PAD2) was 240 M⁻¹ s⁻¹. The “Fold PAD2 Selectivity” value (PAD2) was 1.9 fold, the kinact/KI (PAD3) was 125 M⁻¹ s⁻¹ and the “Fold PAD3 Selectivity” value (PAD3) was 1.0 fold. The kinact/KI (PAD4) was 130 M⁻¹ s⁻¹ and the “Fold PAD4 Selectivity” value (PAD4) was 1.0 fold.
`CCN1Cc2cccc(C(=O)N[C@@H](CCCNC(=N)CCl)c3nc4ccccc4n3C(C)C)c2C1=O` [Compound 8h, N1-(2-ethyl-3-oxoisoindoline)benzoyl-N5-(2-chloro-1-iminoethyl)-1-(1-isopropyl-benzo[d]imidazol-2-yl)-L-ornithine] was tested, and the kinact/KI (PAD1) was 448 M⁻¹ s⁻¹, the “Fold PAD1 Selectivity” value (PAD1) was 11 fold and the kinact/KI (PAD2) was 277 M⁻¹ s⁻¹. For the same molecule, the “Fold PAD2 Selectivity” value (PAD2) was 6.8 fold, the kinact/KI (PAD3) was 80 M⁻¹ s⁻¹ and the “Fold PAD3 Selectivity” value (PAD3) was 2.0 fold. The kinact/KI (PAD4) was 40.5 M⁻¹ s⁻¹ and the “Fold PAD4 Selectivity” value (PAD4) was 1.0 fold.
For `CCN1Cc2cccc(C(=O)N[C@@H](CCCNC(=N)CCl)c3nc4ccccc4[nH]3)c2C1=O` [Compound 8b, N1-(2-ethyl-3-oxoisoindoline)benzol-N5-(2-chloro-1-iminoethyl)-1-(1H-benzo[d]imidazol-2-yl)-L-ornithine], the kinact/KI (PAD1) was 2530 M⁻¹ s⁻¹, the “Fold PAD1 Selectivity” value (PAD1) was 4.3 fold and the kinact/KI (PAD2) was 888 M⁻¹ s⁻¹. For the same molecule, the “Fold PAD2 Selectivity” value (PAD2) was 1.5 fold, the kinact/KI (PAD3) was 583 M⁻¹ s⁻¹ and the “Fold PAD3 Selectivity” value (PAD3) was 1.0 fold. For the same molecule, the kinact/KI (PAD4) was 810 M⁻¹ s⁻¹ and the “Fold PAD4 Selectivity” value (PAD4) was 1.4 fold.
With `CCn1c([C@H](CCCNC(=N)CCl)NC(=O)c2ccccc2C(=O)OC(C)(C)C)nc2ccccc21` [Compound 9d, N1-(2-tert-butylcarboxy)benzoyl-N5-(2-chloro-1-iminoethyl)-1-(1-ethyl-benzo[d]imidazol-2-yl)-L-ornithine] the kinact/KI (PAD1) was 200 M⁻¹ s⁻¹, the “Fold PAD1 Selectivity” value (PAD1) was 9.3 fold and the kinact/KI (PAD2) was 152 M⁻¹ s⁻¹. The “Fold PAD2 Selectivity” value (PAD2) was 7.0 fold, the kinact/KI (PAD3) was 78.3 M⁻¹ s⁻¹ and the “Fold PAD3 Selectivity” value (PAD3) was 3.6 fold. For the same molecule, the kinact/KI (PAD4) was 21.7 M⁻¹ s⁻¹ and the “Fold PAD4 Selectivity” value (PAD4) was 1.0 fold.
With `CCN1Cc2cccc(C(=O)N[C@@H](CCCNC(=N)CF)c3nc4ccccc4n3C)c2C1=O` [Compound 8c, N1-(2-ethyl-3-oxoisoindoline)benzoyl-N5-(2-fluoro-1-iminoethyl)-1-(1-methyl-benzo[d]imidazol-2-yl)-L-ornithine] the kinact/KI (PAD1) was 308 M⁻¹ s⁻¹, the “Fold PAD1 Selectivity” value (PAD1) was 6.1 fold and the kinact/KI (PAD2) was 546 M⁻¹ s⁻¹. For the same molecule, the “Fold PAD2 Selectivity” value (PAD2) was 11 fold, the kinact/KI (PAD3) was 95.8 M⁻¹ s⁻¹ and the “Fold PAD3 Selectivity” value (PAD3) was 1.9 fold. For the same molecule, the kinact/KI (PAD4) was 50.5 M⁻¹ s⁻¹ and the “Fold PAD4 Selectivity” value (PAD4) was 1.0 fold.
With `Cn1c([C@H](CCCNC(=N)CCl)NC(=O)c2ccccc2C(=O)OC(C)(C)C)nc2ccccc21` [Compound 9b, N1-(2-tert-butylcarboxy)benzol-N5-(2-chloro-1-iminoethyl)-1-(1-methyl-benzo[d]imidazol-2-yl)-L-ornithine] the kinact/KI (PAD1) was 325 M⁻¹ s⁻¹, the “Fold PAD1 Selectivity” value (PAD1) was 5.9 fold and the kinact/KI (PAD2) was 55.2 M⁻¹ s⁻¹. The “Fold PAD2 Selectivity” value (PAD2) was 1.0 fold, the kinact/KI (PAD3) was 86.7 M⁻¹ s⁻¹ and the “Fold PAD3 Selectivity” value (PAD3) was 1.6 fold. For the same molecule, the kinact/KI (PAD4) was 64.2 M⁻¹ s⁻¹ and the “Fold PAD4 Selectivity” value (PAD4) was 1.2 fold.
With `CC(C)n1c([C@H](CCCNC(=N)CCl)NC(=O)c2ccccc2C(=O)O)nc2ccccc21` [Compound 6h, N1-(2-Carboxyl)benzoyl-N5-(2-chloro-1-iminoethyl)-1-(1-isopropyl-benzo[d]imidazol-2-yl)-L-ornithine] the kinact/KI (PAD1) was 817 M⁻¹ s⁻¹, the “Fold PAD1 Selectivity” value (PAD1) was 68 fold and the kinact/KI (PAD2) was 452 M⁻¹ s⁻¹. The “Fold PAD2 Selectivity” value (PAD2) was 38 fold, the kinact/KI (PAD3) was 45 M⁻¹ s⁻¹ and the “Fold PAD3 Selectivity” value (PAD3) was 3.8 fold. For the same molecule, the kinact/KI (PAD4) was 12 M⁻¹ s⁻¹ and the “Fold PAD4 Selectivity” value (PAD4) was 1.0 fold.
In the case of `COc1cccc2c1nc([C@H](CCCNC(=N)CF)NC(=O)c1ccc(-c3ccccc3)cc1)n2C` [Compound 5m, N1-[1,4′-Phenyl]benzoyl-N5-(2-fluoro-1-iminoethyl)-1-(4-methoxy-1-methyl-benzo[d]imidazol-2-yl)-L-omithine], the kinact/KI (PAD1) is reported as 31.2 M⁻¹ s⁻¹, the “Fold PAD1 Selectivity” value (PAD1) is reported as 2.4 fold and the kinact/KI (PAD2) is reported as 132 M⁻¹ s⁻¹. For the same molecule, the “Fold PAD2 Selectivity” value (PAD2) was 10 fold, the kinact/KI (PAD3) was 48.3 M⁻¹ s⁻¹ and the “Fold PAD3 Selectivity” value (PAD3) was 3.7 fold. The kinact/KI (PAD4) was 13.2 M⁻¹ s⁻¹ and the “Fold PAD4 Selectivity” value (PAD4) was 1.0 fold.
`CCN1Cc2cccc(C(=O)N[C@@H](CCCNC(=N)CF)c3nc4ccccc4n3C(C)C)c2C1=O` [Compound 8g, N1-(2-ethyl-3-oxoisoindoline)benzol-N5-(2-fluoro-1-iminoethyl)-1-(1-isopropyl-benzo[d]imidazol-2-yl)-L-ornithine] was tested, and the kinact/KI (PAD1) was 78.3 M⁻¹ s⁻¹, the “Fold PAD1 Selectivity” value (PAD1) was 10 fold and the kinact/KI (PAD2) was 173 M⁻¹ s⁻¹. The “Fold PAD2 Selectivity” value (PAD2) was 22 fold, the kinact/KI (PAD3) was 26.7 M⁻¹ s⁻¹ and the “Fold PAD3 Selectivity” value (PAD3) was 3.4 fold. The kinact/KI (PAD4) was 7.83 M⁻¹ s⁻¹ and the “Fold PAD4 Selectivity” value (PAD4) was 1.0 fold.
